Counter-ions that a name gives are not always drawn.
How the values were obtained:
[1] = tested on: N-acetylglycosaminidase (as osteoclastic activity index); details: scalp slices of new-born mouse, tissue culture; starting from the 10 μmolar concentration
Description: (§1) A study on a tissue culture (scalp slices of new-born mouse prepared according to the method described by A. Togari, Gen. Pharmacol. 24, 1133, 1993) was performed. At the end of the culture period, the tissue added μmolar concentrations of the title product, was homogenised in saline plus 0.1% Triton X-100.
(§2) The obtained homogenate was used to determine alkaline phosphatase (as osteoblastic activity index) and N-acetylglycosaminidase (as osteoclastic activity index).

[2] = tested on: alkaline phosphatase (as osteoblastic activity index); details: scalp slices of new-born mouse, tissue culture; starting from the 10 μmolar concentration
Description: as §1, §2

osteoclastic activity (N-acetylglycosaminidase) [1]: inhibit the osteoclastic activity
SMILES: NCCCC(O)(P(=O)(O)O)P(=O)(O)O [alendronate trometamine, alendronate trometamine salt]
osteoblastic activity (alkaline phosphatase) [2]: activate in a significant manner the osteoblastic activity

From US6410782B1, “Diphosphonic acid salts for the treatment of osteoporosis” (Geange Ltd., priority 1997, dated 2002)
